Measured values published in publication PMC8199471, “Identification, Characterization and Antihypertensive Effect In Vivo of a Novel ACE-Inhibitory Heptapeptide from Defatted Areca Nut Kernel Globulin Hydrolysates” (Molecules, 2021).
Ends that are not written are not given here.

What was measured:
[1] = test system: spontaneously hypertensive rats (SHRs); experiment: Antihypertensive effect in vivo, tail-cuff SBP and DBP; parameters: species or system rat; details: positive control, oral 14 mg/kg/body weight once daily, throughout the experiment period
Description: The antihypertensive effect of the synthesized peptide was determined as per the same procedure described by Zheng et al.. Briefly, spontaneously hypertensive rats (SHRs, male, 12 weeks age) were purchased from VRL Animal Technology Co., Ltd. (Beijing, China). The SHRs were randomly divided into positive control group, low-, middle- and high-dosage groups, and negative control group. Each group contains four rats. […] In addition, SHRs in the negative group were orally given saline (0.9%). After an adaptation period of one week, the weight, systolic blood pressure (SBP) and diastolic blood pressure (DBP) of SHRs were measured using the tail-cuff method once week. Moreover, the animal experiment was conducted in conformity with institutional guidelines for the care and use of laboratory animals in Shanxi University of Chinese Medicine, Taiyuan, China. All the rats received human care conforming to the National Institutes of Health Guide for care and Use of Laboratory Animals (Publication No. 85-23, revised 1985).

ACE (from rabbit lung) = target: T1, ACE (from rabbit lung) (Oryctolagus cuniculus, UniProt P12822); experiment: ACE-inhibitory activity assay (HHL substrate, method of Jimsheena and Gowda); type: biochemical; details: synthesized peptide; calculated from regression y = 12.464 ln(x) − 28.656
T1 construct: ACE (from rabbit lung); purchased Sigma Co., St. Louis, MO, USA; host or cells: rabbit lung (tissue-derived)
T1 sequence (P12822 34-1310): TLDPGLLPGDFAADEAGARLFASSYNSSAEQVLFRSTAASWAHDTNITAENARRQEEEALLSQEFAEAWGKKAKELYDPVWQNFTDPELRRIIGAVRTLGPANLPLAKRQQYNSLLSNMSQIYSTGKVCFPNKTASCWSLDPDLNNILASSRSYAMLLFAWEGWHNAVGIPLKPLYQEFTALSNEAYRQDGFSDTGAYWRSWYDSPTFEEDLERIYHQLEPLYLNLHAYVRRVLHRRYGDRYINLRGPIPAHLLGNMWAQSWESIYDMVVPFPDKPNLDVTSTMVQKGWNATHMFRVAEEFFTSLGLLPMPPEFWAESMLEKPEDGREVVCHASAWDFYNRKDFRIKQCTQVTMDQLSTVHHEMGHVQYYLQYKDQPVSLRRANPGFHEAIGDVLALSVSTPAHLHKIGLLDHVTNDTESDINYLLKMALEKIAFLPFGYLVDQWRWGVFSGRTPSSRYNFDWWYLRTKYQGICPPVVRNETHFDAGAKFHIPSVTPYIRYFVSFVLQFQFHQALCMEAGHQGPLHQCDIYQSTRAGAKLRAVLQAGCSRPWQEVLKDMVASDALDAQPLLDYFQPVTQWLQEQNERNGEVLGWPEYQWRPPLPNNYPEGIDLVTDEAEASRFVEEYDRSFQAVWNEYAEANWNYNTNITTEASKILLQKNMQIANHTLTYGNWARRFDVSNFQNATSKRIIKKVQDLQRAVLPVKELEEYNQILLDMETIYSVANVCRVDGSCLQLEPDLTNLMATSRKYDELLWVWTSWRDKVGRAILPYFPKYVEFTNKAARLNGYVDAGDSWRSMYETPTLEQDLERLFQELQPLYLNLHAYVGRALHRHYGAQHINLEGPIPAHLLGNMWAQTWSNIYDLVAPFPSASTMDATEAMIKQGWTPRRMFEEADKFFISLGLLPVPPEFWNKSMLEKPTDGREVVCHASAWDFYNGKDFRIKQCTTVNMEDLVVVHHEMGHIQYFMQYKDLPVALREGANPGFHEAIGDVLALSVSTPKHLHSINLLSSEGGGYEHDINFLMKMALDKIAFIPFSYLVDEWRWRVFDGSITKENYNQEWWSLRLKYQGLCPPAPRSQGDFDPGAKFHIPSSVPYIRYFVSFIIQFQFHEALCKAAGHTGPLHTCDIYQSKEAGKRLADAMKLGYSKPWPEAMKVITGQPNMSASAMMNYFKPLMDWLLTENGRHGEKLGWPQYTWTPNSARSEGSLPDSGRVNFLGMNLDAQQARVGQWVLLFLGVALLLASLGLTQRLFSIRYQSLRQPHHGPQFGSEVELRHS
Description: Areca nut kernel was purchased from Sanpo Palm Ground Part Co., Haikou, China. Cellulase (from Trichoderma viride G, 3.0 × 10^5 U), trypsin (5 × 10^[…]) and alcalase (1 × 10^[…]) were purchased from Tian Keji Co., Ltd. (Tianjin, China). EA.hy926 cells were purchased from the Type Culture Collection of the Chinese Academy of Sciences, Shanghai, China. Captopril, ACE (from rabbit lung) and N-Hippuryl-His-Leu hydrate (HHL) were purchased from Sigma Co., St. Louis, MO, USA. Endothelin-1 Elisa kit was from Pensui Biotech Co. (Wuhan, China). DMEM (Dulbecco's modified Eagle's medium) were obtained from JiQing Biotech. Co., Ltd. (Nanjing, China). Other chemicals and reagents were of analytical grade and purchased from Peisu Co., Ltd. (Xi'an, China). ACE-inhibitory activity was determined using the same procedure as described by Jimsheena and Gowda. The concentration of the sample required for inhibiting 50% of ACE activity was defined as IC50 value. The ACE inhibition kinetics of peptides identified in ANKGH was analyzed by Lineweaver-Burk plots of 1/V versus 1/HHL in the presence of the inhibitor [17]. The concentrations of HHL (N-hippuryl-His-Leu hydrate) used were 0.76 to 7.60 mM.

ACE = test system: ACE; parameters: method as in 2 sources, one per row (each row's own in cited_ref): ref 18 = [18]; PMID 29606478; doi:10.1016/j.foodchem.2018.02.107; 18. Tu M. Wang C. Chen C. Zhang R. Liu H. Lu W. Jiang L. Du M. Identification of a novel ACE-inhibitory peptide from casein and evaluation of the inhibitory mechanisms Food Chem. 2018 256 98 104 10.10 ||| ref 20 = [20]; PMID 30229250; doi:10.1039/C8FO00569A; 20. Ling Y. Sun L.P. Zhuang Y.L. Preparation and identification of novel inhibitory angiotensin-I-converting enzyme peptides from tilapia skin gelatin hydrolysates: Inhibition kinetics and molecular d; details: peptide identified in casein protein; cited from earlier work

For `C[C@H](CS)C(=O)N1CCC[C@H]1C(=O)O` [Captopril], the “DBP of SHRs among all test groups” value [1] was “lowest” and the “SBP of SHRs among all test groups” value [1] was “lowest”.

“APKIEEV [APKIEEV, Ala–Pro–Lys–Ile–Glu–Glu–Val]” showed an IC50 (ACE (from rabbit lung)) of 550 µM.

For NMAINPSKENLCSTFCK, the IC50 (ACE) is given as 129 µM.
